In patent publication US20230339981A1, “KRAS G12D MODULATING COMPOUNDS” (priority 2022, published 2023):

Columns and labels:
GDP-loaded KRAS G12D = GDP-loaded KRAS G12D (Homo sapiens (Human), UniProt P01116, G12D); test: KRAS G12D (GDP) biochemical assay (TR-FRET probe displacement); type: binding; conditions: 2 hours
How it was run: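 TR-FRET probe displacement: 1:3 DMSO serial dilutions pre-incubated 30 min with GDP-bound KRAS G12D, followed by Eu-streptavidin/probe for 2 h at room temperature (Hepes pH 7.4, NaCl, MgCl2, Tween-20 buffer). IC50 defined as concentration halving TR-FRET ratio, from sigmoidal dose-response fit.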

GP2D (KRAS G12D) cells = test: 2D cell viability assay (CellTiter-Glo); type: cell-based; conditions: GP2d, 96 h, 4 days
How it was run: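 Viability was read by CellTiter-Glo after 4 days at 37 °C of 2D culture of KRAS G12D GP2D cells (1000/well, RPMI, 10% FBS) on pre-spotted threefold compound dilutions. EC50 was fitted with a sigmoidal dose-response model as the point of half-maximal luminescence loss.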

GDP-loaded KRAS G12D, sequence (P01116-2 other isoform, or with tags, fused parts or gaps G12D): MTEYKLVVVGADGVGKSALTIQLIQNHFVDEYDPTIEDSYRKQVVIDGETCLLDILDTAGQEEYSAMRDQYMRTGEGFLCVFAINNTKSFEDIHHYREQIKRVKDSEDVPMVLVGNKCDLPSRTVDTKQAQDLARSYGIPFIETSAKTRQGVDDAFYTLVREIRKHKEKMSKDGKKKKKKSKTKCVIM

Row | Structure (SMILES) | IC50 (GDP-loaded KRAS G12D) [nM] | EC50 (GP2D (KRAS G12D) cells) [nM]
1 | C#Cc1c(F)ccc2cc(O)cc(-c3nc4c5c(nc(OC[C@@]67CCCN6[C@H](COCC(F)(F)F)CC7)nc5c3F)N3C[C@H]5CC[C@H](N5)[C@H]3CC4)c12 [Example 163, 5-ethynyl-6-fluoro-4-((5aR,6S,9R)-1-fluoro-12-(((3S,7aS)-3-((2,2,2-trifluoroethoxy)methyl)tetrahydro-1H-pyrrolizin-7a(5H)-yl)methoxy)-4,5,5a,6,7,8,9,10-octahydro-3,10a,11,13,14-pentaaza-6,9-methanonaphtho[1,8-ab]heptalen-2-yl)naphthalen-2-ol] | 0.1 | 5.1
2 | C#Cc1c(F)ccc2cccc(-c3nc4c5c(nc(OC[C@@]67CCCN6[C@H](COCC(F)(F)F)CC7)nc5c3F)N3C[C@H]5CC[C@H](N5)[C@H]3CC4)c12 [Example 164, (5aR,6S,9R)-2-(8-ethynyl-7-fluoronaphthalen-1-yl)-1-fluoro-12-(((3S,7aS)-3-((2,2,2-trifluoroethoxy)methyl)tetrahydro-1H-pyrrolizin-7a(5H)-yl)methoxy)-4,5,5a,6,7,8,9,10-octahydro-3,10a,11,13,14-pentaaza-6,9-methanonaphtho[1,8-ab]heptalene] | 0.3 | 38
3 | C#Cc1c(F)ccc2cccc(-c3nc4c5c(nc(OC[C@@]67CCCN6C[C@H](F)C7)nc5c3F)N3C[C@H]5CC[C@H](N5)[C@H]3CC[C@@H]4C)c12 [Example 174, (4S,6aR,7S,10R)-2-(8-ethynyl-7-fluoronaphthalen-1-yl)-1-fluoro-13-(((2R,7aS)-2-fluorotetrahydro-1H-pyrrolizin-7a(5H)-yl)methoxy)-4-methyl-5,6,6a,7,8,9,10,11-octahydro-4H-3,11a,12,14,15-pentaaza-7,10-methanocyclohepta[4,5]cycloocta[1,2,3-de]naphthalene] | 5.7 | 100
4 | C#Cc1c(F)ccc2cccc(-c3nc4c5c(nc(OCC6(CN7CCC8(CC7)CC8)CC6)nc5c3F)N3C[C@H]5CC[C@H](N5)[C@H]3CCC4)c12 [Example 178, (6aR,7S,10R)-13-((1-((6-azaspiro[2.5]octan-6-yl)methyl)cyclopropyl)methoxy)-2-(8-ethynyl-7-fluoronaphthalen-1-yl)-1-fluoro-5,6,6a,7,8,9,10,11-octahydro-4H-3,11a,12,14,15-pentaaza-7,10-methanocyclohepta[4,5]cycloocta[1,2,3-de]naphthalene] | 0.7 | 37.4
5 | C#Cc1c(F)ccc2cc(O)cc(-c3nc4c5c(nc(OCC6(CN7CCC(Oc8ccnc(C(F)(F)F)n8)CC7)CC6)nc5c3F)N3C[C@H]5CC[C@H](N5)[C@H]3CC4)c12 [Example 180, 5-ethynyl-6-fluoro-4-((5aR,6S,9R)-1-fluoro-12-((1-((4-((2-(trifluoromethyl)pyrimidin-4-yl)oxy)piperidin-1-yl)methyl)cyclopropyl)methoxy)-4,5,5a,6,7,8,9,10-octahydro-3,10a,11,13,14-pentaaza-6,9-methanonaphtho[1,8-ab]heptalen-2-yl)naphthalen-2-ol] | 0.8 | 5.1
6 | C#Cc1c(F)ccc2cccc(-c3nc4c5c(nc(OC[C@@]67CCCN6C[C@H](F)C7)nc5c3F)N3C[C@H]5CC[C@H](N5)[C@H]3C[C@H]4CC)c12 [Example 182, (4R,5aR,6S,9R)-4-ethyl-2-(8-ethynyl-7-fluoronaphthalen-1-yl)-1-fluoro-12-(((2R,7aS)-2-fluorotetrahydro-1H-pyrrolizin-7a(5H)-yl)methoxy)-4,5,5a,6,7,8,9,10-octahydro-3,10a,11,13,14-pentaaza-6,9-methanonaphtho[1,8-ab]heptalene] | 0.4 | 87
7 | C#Cc1c(F)ccc2cccc(-c3nc4c5c(nc(OC[C@@]67CCCN6C[C@H](F)C7)nc5c3F)N3C[C@H]5CC[C@H](N5)[C@H]3[C@H](C)C4)c12 [Example 184, (5R,5aR,6S,9R)-2-(8-ethynyl-7-fluoronaphthalen-1-yl)-1-fluoro-12-(((2R,7aS)-2-fluorotetrahydro-1H-pyrrolizin-7a(5H)-yl)methoxy)-5-methyl-4,5,5a,6,7,8,9,10-octahydro-3,10a,11,13,14-pentaaza-6,9-methanonaphtho[1,8-ab]heptalene] | 0.7 | 19
8 | C#Cc1c(F)ccc2cccc(-c3nc4c5c(nc(OC[C@@]67CCCN6C[C@H](F)C7)nc5c3F)N3C[C@H]5CC[C@H](N5)[C@H]3C[C@H]4O)c12 [Example 186, (4R,5aR,6S,9R)-2-(8-ethynyl-7-fluoronaphthalen-1-yl)-1-fluoro-12-(((2R,7aS)-2-fluorotetrahydro-1H-pyrrolizin-7a(5H)-yl)methoxy)-4,5,5a,6,7,8,9,10-octahydro-3,10a,11,13,14-pentaaza-6,9-methanonaphtho[1,8-ab]heptalen-4-ol] | 0.2 | 13
9 | C#Cc1c(F)ccc2cccc(-c3nc4c5c(nc(OC[C@@]67CCCN6[C@H](COC(C(F)(F)F)(C(F)(F)F)C(F)(F)F)CC7)nc5c3F)N3C[C@H]5CC[C@H](N5)[C@H]3CC4)c12 [Example 187, (5aR,6S,9R)-2-(8-ethynyl-7-fluoronaphthalen-1-yl)-1-fluoro-12-(((3S,7aS)-3-(((1,1,1,3,3,3-hexafluoro-2-(trifluoromethyl)propan-2-yl)oxy)methyl)tetrahydro-1H-pyrrolizin-7a(5H)-yl)methoxy)-4,5,5a,6,7,8,9,10-octahydro-3,10a,11,13,14-pentaaza-6,9-methanonaphtho[1,8-ab]heptalene] | 0.9 | 62
10 | C#Cc1c(F)ccc2cccc(-c3nc4c5c(nc(OC[C@@]67CCCN6C[C@H](F)C7)nc5c3F)N3C[C@H]5CC[C@H](N5)[C@H]3CCCC4)c12 [Example 188, (7aR,8S,11R)-2-(8-ethynyl-7-fluoronaphthalen-1-yl)-1-fluoro-14-(((2R,7aS)-2-fluorotetrahydro-1H-pyrrolizin-7a(5H)-yl)methoxy)-4,5,6,7,7a,8,9,10,11,12-decahydro-3,12a,13,15,16-pentaaza-8,11-methanocyclohepta[4,5]cyclonona[1,2,3-de]naphthalene] | 0.2 | 100
11 | C#Cc1c(F)ccc2cccc(-c3cc4c5c(nc(OC[C@@]67CCCN6C[C@H](F)C7)nc5c3F)N3C[C@H]5CC[C@H](N5)[C@H]3CCC4)c12 [Example 192, (1S,4R,15aR)-11-(8-ethynyl-7-fluoronaphthalen-1-yl)-10-fluoro-8-(((2R,7aS)-2-fluorotetrahydro-1H-pyrrolizin-7a(5H)-yl)methoxy)-2,3,4,5,13,14,15,15a-octahydro-1H-1,4-epiminoazepino[1′,2′:1,8]azocino[2,3,4-de]quinazoline] | 0.1 | 4.5
12 | C#Cc1c(F)ccc2cc(N)cc(-c3cc4c5c(nc(OC[C@@]67CCCN6C[C@H](F)C7)nc5c3F)N3C[C@H]5CC[C@H](N5)[C@@H]3[C@@H](C)C4)c12 [Example 193, 5-ethynyl-6-fluoro-4-((1S,4R,14S,14aS)-10-fluoro-8-(((2R,7aS)-2-fluorotetrahydro-1H-pyrrolizin-7a(5H)-yl)methoxy)-14-methyl-1,2,3,4,5,13,14,14a-octahydro-1,4-epiminoazepino[1′,2′:1,7]azepino[2,3,4-de]quinazolin-11-yl)naphthalen-2-amine] | 0.05 | 4.9
13 | C#Cc1c(F)ccc2cc(N)cc(-c3nc4c5c(nc(OC[C@@]67CCCN6C[C@H](F)C7)nc5c3F)N3C[C@H]5CC[C@H](N5)[C@@H]3CC[C@H]4C)c12 [Example 194, 5-ethynyl-6-fluoro-4-((4R,6aS,7S,10R)-1-fluoro-13-(((2R,7aS)-2-fluorotetrahydro-1H-pyrrolizin-7a(5H)-yl)methoxy)-4-methyl-5,6,6a,7,8,9,10,11-octahydro-4H-3,11a,12,14,15-pentaaza-7,10-methanocyclohepta[4,5]cycloocta[1,2,3-de]naphthalen-2-yl)naphthalen-2-amine] | 31 | 70
14 | C#Cc1c(F)ccc2cccc(-c3nc4c5c(nc(OC[C@@]67CCCN6[C@H](CF)CC7)nc5c3F)N3C[C@H]5CC[C@H](N5)[C@H]3CC[C@H]4C)c12 [Example 195, (4R,6aR,7S,10R)-2-(8-ethynyl-7-fluoronaphthalen-1-yl)-1-fluoro-13-(((3S,7aS)-3-(fluoromethyl)tetrahydro-1H-pyrrolizin-7a(5H)-yl)methoxy)-4-methyl-5,6,6a,7,8,9,10,11-octahydro-4H-3,11a,12,14,15-pentaaza-7,10-methanocyclohepta[4,5]cycloocta[1,2,3-de]naphthalene] | 0.07 | 1.5
15 | C#Cc1c(F)ccc2cc(N)cc(-c3nc4c5c(nc(OC[C@@]67CCCN6C[C@H](F)C7)nc5c3F)N3C[C@H]5CC[C@H](N5)[C@@H]3[C@@H](C)C4)c12 [Example 196, 5-ethynyl-6-fluoro-4-((5S,5aS,6S,9R)-1-fluoro-12-(((2R,7aS)-2-fluorotetrahydro-1H-pyrrolizin-7a(5H)-yl)methoxy)-5-methyl-4,5,5a,6,7,8,9,10-octahydro-3,10a,11,13,14-pentaaza-6,9-methanonaphtho[1,8-ab]heptalen-2-yl)naphthalen-2-amine] | 0.1 | 1.8
16 | C#Cc1c(F)ccc2cccc(-c3nc4c5c(nc(OC[C@@]67CCCN6[C@H](COc6cnc(C(F)(F)F)cn6)CC7)nc5c3F)N3C[C@H]5CC[C@H](N5)[C@H]3CCC4)c12 [Example 197, (6aR,7S,10R)-2-(8-ethynyl-7-fluoronaphthalen-1-yl)-1-fluoro-13-(((3S,7aS)-3-(((5-(trifluoromethyl)pyrazin-2-yl)oxy)methyl)tetrahydro-1H-pyrrolizin-7a(5H)-yl)methoxy)-5,6,6a,7,8,9,10,11-octahydro-4H-3,11a,12,14,15-pentaaza-7,10-methanocyclohepta[4,5]cycloocta[1,2,3-de]naphthalene] | 0.04 | 2.4
